From PubChem BioAssay AID1033 (Sanford-Burnham Center for Chemical Genomics, 2008) come the findings set out here.

Activity calls are given as the source filed them. No rule for the calls is given here.

Chaperone protein DnaK (Escherichia coli (strain K12)), sequence (P0A6Y8 whole entry, looked up): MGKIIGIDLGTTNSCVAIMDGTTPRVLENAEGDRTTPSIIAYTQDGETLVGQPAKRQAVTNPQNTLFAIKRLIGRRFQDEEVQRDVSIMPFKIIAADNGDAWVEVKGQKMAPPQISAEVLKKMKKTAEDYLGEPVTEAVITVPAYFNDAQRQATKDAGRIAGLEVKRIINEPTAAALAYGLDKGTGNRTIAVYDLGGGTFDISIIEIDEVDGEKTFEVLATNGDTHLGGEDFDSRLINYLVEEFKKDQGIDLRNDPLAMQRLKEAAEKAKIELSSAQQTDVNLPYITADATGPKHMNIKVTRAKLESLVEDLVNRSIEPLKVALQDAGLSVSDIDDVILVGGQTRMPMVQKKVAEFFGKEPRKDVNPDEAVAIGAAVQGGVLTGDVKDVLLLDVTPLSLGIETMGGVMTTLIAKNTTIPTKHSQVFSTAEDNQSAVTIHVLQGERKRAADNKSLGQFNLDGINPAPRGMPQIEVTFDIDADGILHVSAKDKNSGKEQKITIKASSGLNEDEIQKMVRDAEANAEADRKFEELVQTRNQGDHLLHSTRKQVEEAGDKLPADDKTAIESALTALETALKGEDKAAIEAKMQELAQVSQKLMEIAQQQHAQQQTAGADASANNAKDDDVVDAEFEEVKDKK

The assay has as its target Chaperone protein DnaK (Escherichia coli (strain K12)) (UniProt P0A6Y8). Kind of assay: E. coli DnaK SBD ligand binding – biophysical, NMR, chaperone (AID 1033). The conditions noted are these: Purified DnaK SBD.
With `Nc1nnc(SCc2ccc3c(c2)OCO3)s1`, the Kd was > 4 mM (inactive).

As to `N#C/C(=C\c1ccc[nH]1)S(=O)(=O)c1ccccc1`, the Kd was > 4 mM (inactive). Turning to `O=C(NN1CCOCC1)c1cccs1`, the Kd was > 4 mM (inactive). On to `Cn1ccc(NC(=S)Nc2cccc([N+](=O)[O-])c2)n1`, for which the Kd is > 4 mM (inactive). For the compound `Cn1nnc2c(Cl)ncnc21`, the Kd is > 4 mM (inactive). Consider `Cc1csc(CCc2nc(C)cs2)n1`, for which the Kd is > 4 mM (inactive). Regarding `CC1=NN(c2ccc(C)cc2)C(=O)C1`, the Kd was > 4 mM (inactive). As to `Nc1ncnc2c1ncn2CCOc1ccccc1`, the Kd is > 4 mM (inactive).

On to `O=C(Nn1cnnc1)c1ccccc1-c1ccccc1`, for which the Kd was > 4 mM (inactive).

On to `CC(C)=CCc1c2c(c3occ(-c4ccc(O)cc4)c(=O)c3c1O)C=CC(C)(C)O2`, for which the Kd was > 4 mM (inactive). As for `O=C1c2ccccc2C(=O)N1CCc1ccccn1`, the Kd was > 4 mM (inactive).

Turning to `c1ccc(NCc2nc(-c3ccccc3)no2)cc1`, the Kd is > 4 mM (inactive).

On to `COc1cc(-c2csc(C)n2)ccc1O`, for which the Kd was > 4 mM (inactive). On to `CSc1ccc(/C=c2\sc3ncnn3c2=O)cc1`, for which the Kd is > 4 mM (inactive). For the compound `O=C1C2CCCCC2C(=O)N1c1nccs1` (stereo not given), the Kd is > 4 mM (inactive).

As for `CC(=O)c1cc(C(N)=O)c(=S)[nH]c1C`, the Kd is > 4 mM (inactive). Turning to `COc1ccc2c(c1OC)OC[C@@H](c1ccc(OC)c(OC)c1OC)C2`, the Kd is > 4 mM (inactive). In the case of `CN1C(=O)/C(=C/c2ccccc2O)NC1=S`, the Kd is > 4 mM (inactive).

For `NC1Cc2ccccc2C1`, the Kd was > 4 mM (inactive). As for `O=C1NC(=O)C2C3C=CC(O3)C12` (stereo not given), the Kd was > 4 mM (inactive).

As for `S=c1oc(-c2ccncc2)nn1CCc1ccncc1`, the Kd is > 4 mM (inactive). With `Cc1ccc(C)n1-c1ccc(C(=O)N2CCOCC2)cc1`, the Kd was > 4 mM (inactive). To `Cc1nc2c(=O)[nH]c3ccccc3c2o1` belongs > 4 mM (inactive); to `CC1(C)C(=O)C=C[C@@]2(C)C1CC(=O)[C@]1(C)C2CC[C@@]2(C)[C@H](c3ccoc3)OC(=O)[C@H]3O[C@]321` (stereo not given in full), > 4 mM (inactive). Consider `c1ccc(Cn2cccc2)nc1`, for which the Kd was > 4 mM (inactive).

Regarding `NC1=NC(=O)/C(=C\c2ccco2)S1`, the Kd was > 4 mM (inactive). On to `O=C1C[C@@H](c2ccc(O)cc2)Oc2cc(O)cc(O)c21`, for which the Kd is > 4 mM (inactive). On to `Nc1cccc(S(N)(=O)=O)c1`, for which the Kd was > 4 mM (inactive).

`COc1ccc(-c2nc(C)sc2CC(=O)O)cc1`: the Kd is > 4 mM (inactive). To `CC(=O)Nc1ccc(NC(=O)/C=C\C(=O)O)cc1` belongs > 4 mM (inactive); to `NC(=O)N1CCc2ccccc21`, > 4 mM (inactive).

For `O=c1c2ccccc2oc2ccc(O)cc12`, the Kd is > 4 mM (inactive). For the compound `CC(C)(C)C(=O)Nc1nnc(SCC(N)=O)s1`, the Kd was > 4 mM (inactive). As to `O=C(Nc1ccon1)c1ccccc1Cl`, the Kd was > 4 mM (inactive). On to `CN1CCN(C(=O)c2ccccc2C(=O)O)CC1`, for which the Kd was > 4 mM (inactive). With `CNC(=S)NCCN1CCOCC1`, the Kd was > 4 mM (inactive).

On to `C=CCSCC=C`, for which the Kd was > 4 mM (inactive). Turning to `NC(=O)CNC(=O)c1ccccc1`, the Kd is > 4 mM (inactive). Consider `C=C1C2CC[C@@]3(C)[C@H](c4ccoc4)OC(=O)C[C@]13O[C@H]1CC(=O)C(C)(C)[C@H](C(OC(C)=O)C(=O)OC)[C@@]21C` (stereo not given in full), for which the Kd was > 4 mM (inactive). For `CC(=O)Nc1ccc(S(=O)(=O)N(C)C)cc1`, the Kd is > 4 mM (inactive). As for `OCc1sccc1-n1cccc1`, the Kd was > 4 mM (inactive). `C(=N\c1nccs1)/c1cccnc1`: the Kd was > 4 mM (inactive). As to `Cc1c(/C=N/O)cnn1C`, the Kd is > 4 mM (inactive). Consider `Fc1cccc(F)c1CN1CCN(c2ncccn2)CC1`, for which the Kd is > 4 mM (inactive).

As for `C=C(C)[C@@H]1[C@H]2OC(=O)[C@@H]1[C@]1(O)C[C@H]3O[C@]34C(=O)O[C@H]2[C@]14C`, the Kd was > 4 mM (inactive). With `COc1ccc2c(c1)[nH]c1c(C)nccc12`, the Kd is > 4 mM (inactive). As to `CN(Cc1nc2ccccc2n1C)C(=O)c1cccs1`, the Kd is > 4 mM (inactive). The same measure for `O=C(c1ccccc1)c1ccc(N2CCNCC2)cc1`: > 4 mM (inactive). `CN1CCN(C(=O)/C=C\C(=O)O)CC1`: the Kd was > 4 mM (inactive).

For `Cn1c(SCC(N)=O)nnc1-c1c[nH]c2ccccc12`, the Kd was > 4 mM (inactive). To `CSc1ccccc1NC(=O)c1ccco1` belongs > 4 mM (inactive); to `C=C1C2CC[C@@]3(C)[C@H](c4ccoc4)OC(=O)C[C@]13O[C@H]1CC(O)C(C)(C)C(CC(=O)OC)[C@@]21C` (stereo not given in full), > 4 mM (inactive). To `O=C(O)CCC(=O)Nc1ccccc1F` belongs > 4 mM (inactive). The same measure for `OCC1CCN(c2ncccn2)CC1`: > 4 mM (inactive). As to `O=C(Nc1nnc(C(F)(F)F)s1)c1cccnc1`, the Kd is > 4 mM (inactive). The same measure for `COc1ccc(-c2cc(=O)c3c(O)cc(O[C@H]4O[C@H](CO[C@@H]5O[C@@H](C)[C@H](O)[C@@H](O)[C@H]5O)[C@@H](O)[C@H](O)[C@H]4O)cc3o2)cc1`: > 4 mM (inactive). Take `O=c1c2ccccc2nc2n1CCS2`: the Kd is > 4 mM (inactive). The same measure for `Cn1cnc2c(=S)[nH]c(=O)n(Cc3ccccc3)c21`: > 4 mM (inactive).

Take `OC/C=C/c1ccc(O)c(O)c1`: the Kd is > 4 mM (inactive). The same measure for `c1ccc(-c2nsc(N3CCNCC3)n2)cc1`: > 4 mM (inactive); for `OCc1ccc(-n2cncn2)cc1`: > 4 mM (inactive). On to `COc1cc2c(cc1OC)C(C)NCC2` (stereo not given), for which the Kd was > 4 mM (inactive).

Take `O=C(CC1Nc2ccccc2NC1=O)Nc1ccc(O)cc1` (stereo not given): the Kd was > 4 mM (inactive). The same measure for `O=C(O)c1cc(O)c2c(c1)[C@@H]([C@H]1c3cc(C(=O)O)cc(O)c3C(=O)c3c(O[C@H]4O[C@H](CO)[C@@H](O)[C@H](O)[C@H]4O)cccc31)c1cccc(O[C@H]3O[C@H](CO)[C@@H](O)[C@H](O)[C@H]3O)c1C2=O`: > 4 mM (inactive). Take `c1cncc(-c2nnc(-c3cccnc3)nn2)c1`: the Kd is > 4 mM (inactive). Regarding `OCCOc1ccc(C2=NCCO2)cc1`, the Kd was > 4 mM (inactive). As for `Nc1cc2ccccc2cn1`, the Kd is > 4 mM (inactive).

`CC(=O)O[C@@H]1CC2C(C)(C)[C@H](O)C=C[C@]2(C)C2CC[C@@]3(C)[C@H](c4ccoc4)OC(=O)C4OC43[C@@]21C` (stereo not given in full): the Kd is > 4 mM (inactive). Consider `Nc1nc2ncc(=O)[nH]c2c(=O)[nH]1`, for which the Kd was > 4 mM (inactive). As to `CC(=O)Oc1ccccc1N1C(=O)C=CC1=O`, the Kd is > 4 mM (inactive). Regarding `CNC(=S)N1CCN(C(=O)c2ccco2)CC1`, the Kd was > 4 mM (inactive). Consider `Cc1nn(-c2ccccc2)nc1C(=O)O`, for which the Kd was > 4 mM (inactive). The same measure for `CC(=O)O[C@H]1C[C@@H](OC(C)=O)C(C)(C)C2CC(=O)[C@]3(C)C(CC[C@@]4(C)[C@H](c5ccoc5)OC(=O)[C@H]5O[C@]543)[C@]21C` (stereo not given in full): > 4 mM (inactive); for `O=c1nc(NCc2ccco2)sc2ncccc12`: > 4 mM (inactive); for `Fc1ccc(N2CCNCC2)cc1`: > 4 mM (inactive). To `Nc1ccc(C2SCCS2)cc1` belongs > 4 mM (inactive); to `c1ccc(-n2cnnc2)nc1`, > 4 mM (inactive). Regarding `CC(=O)c1ccc(Cc2cnc(N)s2)cc1`, the Kd was > 4 mM (inactive). Turning to `Cc1ccc(CN2CCNC(=O)C2CC(=O)O)o1` (stereo not given), the Kd was > 4 mM (inactive). For the compound `Cn1ncc(N2CCOCC2)c(Cl)c1=O`, the Kd was > 4 mM (inactive). On to `O=C(O)c1cc(O)c(O)c(O)c1`, for which the Kd is > 4 mM (inactive). The same measure for `CC1CC2(NC(=O)NC2=O)C(C)CN1C` (stereo not given): > 4 mM (inactive); for `COc1c(-c2coc3cc4c(cc3c2=O)CC(O)C(C)(C)O4)ccc2c1C=CC(C)(C)O2` (stereo not given): > 4 mM (inactive); for `CN1CCN(CC(=O)NC2CCCCC2)CC1`: > 4 mM (inactive). On to `C[C@@H]1[C@H]2[C@H](O[C@@H]3O[C@H](CO)[C@@H](O)[C@H](O)[C@H]3O)OC=C(C(=O)O)[C@H]2C[C@@H]1O`, for which the Kd was > 4 mM (inactive). As to `O=C(O)CNc1ncnc2nc[nH]c12`, the Kd is > 4 mM (inactive).

For the compound `O=c1[nH]nc(Cc2ccncc2)c2ccccc12`, the Kd was > 4 mM (inactive). As for `O=C(O)C1CC2CC1CCC2O` (stereo not given), the Kd is > 4 mM (inactive). To `Cc1nn(CC(=O)Nc2ccccc2)c(=O)c2ccccc12` belongs > 4 mM (inactive).

For `CC1(C)CC[C@]2(C(=O)O)CC[C@]3(C)C(=CCC4[C@@]5(C)CC[C@H](O)[C@@](C)(CO)C5CC[C@]43C)C2C1` (stereo not given in full), the Kd is > 4 mM (inactive).

In the case of `CCc1noc(C)c1C(=O)N1CCOCC1`, the Kd is > 4 mM (inactive). To `CC[C@]12CCCN3CCc4c(n(c5ccccc45)[C@](O)(C(=O)OC)C1)[C@@H]32` belongs > 4 mM (inactive). As to `O=C1c2ccccc2-c2ncnc3cccc1c23`, the Kd was > 4 mM (inactive). The same measure for `Cc1cc(C)n(CC(=O)NC2CCCCC2)n1`: > 4 mM (inactive). To `OCC1COc2ccccc2C1` (stereo not given) belongs > 4 mM (inactive). As for `O=C(O)CCc1nc2ccccc2[nH]c1=O`, the Kd is > 4 mM (inactive).

Consider `COc1ccc(C(N)=O)cc1N`, for which the Kd was > 4 mM (inactive).

Turning to `Cn1c(SCC(=O)NCCO)nc2ccccc2c1=O`, the Kd is > 4 mM (inactive). Turning to `CC(C)[C@@H]1CC[C@@H](C)C[C@H]1O`, the Kd was > 4 mM (inactive). The same measure for `Cc1ccnc(NS(=O)(=O)c2ccccc2)n1`: > 4 mM (inactive).

As a reminder, the Kd is the constant that tells how readily two partners part at equilibrium.
